Laboratory results published in patent EP0234431A2, “5-Hydroxydihydrofusarubin, a process for its preparation and its use for the preparation of a medicament” (HOECHST JAPAN LIMITED, priority 1986, dated 1987).
≈ marks a conversion by molar mass, not a printed value.

Experiments:
[1] = test system: Bacillus subtilis ATCC 6633; test: Antimicrobial test, agar plate-dilution method; type: cell-based; conditions: ATCC6633
Method: (§1) Minimum inhibitory concentrations (MIC) of 5-hydroxydihydrofusarubin (I) against bacteria and fungi were determined by the agar plate-dilution method.

Candida albicans C-a-30 = test: Antimicrobial test, agar plate-dilution method; type: cell-based; conditions: CA30
Method: as §1

[2] = test system: Saccharomyces cereviciae ATCC 9763; test: Antimicrobial test, agar plate-dilution method; type: cell-based; conditions: ATCC9763
Method: as §1

[3] = test system: Staphylococcus aureus FDA209PJC1; test: Antimicrobial test, agar plate-dilution method; type: cell-based
Method: as §1

[4] = test system: Streptococcus pneumoniae DP-1; test: Antimicrobial test, agar plate-dilution method; type: cell-based; conditions: DP1
Method: as §1

[5] = test system: mouse leukemia L1210 cells; test: Antitumor test, growth inhibition of L1210 cells in suspension; type: cell-based; conditions: growth of mouse leukemia L1210 cells in suspension (1 x 10⁶/mouse)
Method: An antitumor test was carried out for 5-hydroxy dihydrofusarubin. Half value (IC₅₀) inhibiting growth of mouse leukemia L1210 cells in suspension (1 x 10⁶/mouse) was as follows: […]

[6] = Solubility (physicochemical properties)
Method: Physicochemical properties of 5-hydroxydihydrofusarubin (I) produced by the present invention are as follows: • (1) Appearance: Orange plates • (2) Molecular formula: C₁₅H₁₈O₇ • (3) Molecular weight: 310 • (4) Melting point: 192-193°C • (5) Optical rotation: -171.4 (in 0.06% acetone solution) • (6) Ultraviolet and visible absorption spectrum: in 95% ethanol solution: λ max (nm) (logε) 211(4.17), 245(4.08), 284(3.97), 359(3.88) • (7) Infrared absorption spectrum: The infrared absorption spectrum measured in potassium bromide tablet is shown in Fig. 1. • (8) ¹H-NMR: ¹H-NMR measured in deuteriumchloroform is shown in Fig. 2. Chemical shifts were assigned as shown below. [formula] • (9) ¹³C-NMR: ¹³C-NMR measured in deuteriumchloroform is shown in Fig. 3. Chemical shifts were assigned as shown below. [formula] • (10) Solubility: Soluble in chloroform, methylene chloride, ethyl acetate, acetone, ethanol or methanol. […] Solubility in water: Insoluble under acidic or neutral condition, and soluble under alkaline condition.

COc1cc(O)c2c(c1O)C(O)C1CC(C)(O)OCC1C2=O (stereo not shown) [5-Hydroxydihydrofusarubin] showed an MIC [1] of 100 µg/mL (≈ 322 µM), an MIC (Candida albicans C-a-30) of 100 µg/mL (≈ 322 µM) and an MIC [2] of 50 µg/mL (≈ 161 µM). The MIC [3] was 100 µg/mL (≈ 322 µM), the MIC [4] was 50 µg/mL (≈ 161 µM) and the IC50 [5] was 9.4 ± 0.9 µg/mL (≈ 30.3 µM). The Solubility ([6]; in chloroform, methylene chloride, ethyl acetate, acetone, ethanol or methanol) was “Soluble”, the Solubility ([6]; in hexane or petroleum ether) was “Sparingly soluble” and the Solubility in water ([6]; under acidic or neutral condition) was “Insoluble”. The Solubility in water ([6]; under alkaline condition) was “soluble”.
